These results are taken from patent US20080207455A1, “5,6-Dialkyl-7-Aminoazolopyrimidines, Their Preparation and Their Use for Controlling Harmful Fungi, and Compositions Comprising These Compounds” (BASF AKTINGESELLSCHAFT, priority 2005, published 2008).

The subject of data set [1] is Plasmopara viticola. The experiment in a line: Activity against peronospora of grapevines caused by Plasmopara viticola (protective leaf spray, potted vines). The class given is in vivo. The note with it: comparison with the closest prior art, concentration not restated in the table, untreated 100. On the procedure: The mixture was then made up to 100 ml with water. This stock solution was diluted with the solvent/emulsifier/water mixture described to the concentration of active compounds stated below. Use example 1—Activity against peronospora of grapevines caused by Plasmopara viticola Leaves of potted vines were sprayed to runoff point with an aqueous suspension comprising 250 ppm of active compound. The next day, the undersides of the leaves were inoculated with an aqueous sporangia suspension of Plasmopara viticola. The vines were then initially placed in a water vapor-saturated chamber at 24° C. for 48 hours and then in a greenhouse at temperatures between 20 and 30° C. for five days. After this time, the plants were once more placed in a humid chamber for 16 hours to accelerate the eruption of sporangiophores. The extent of the development of the infection on the undersides of the leaves was then determined visually.

Take `CCCCCCCCCCc1c(C)nc2cc(C)nn2c1N` [Compound 28, reference compound]: the Infection in % in data set [1] stood at 40%.

For orientation: melting point means the temperature, or range, at which the solid turns liquid. `CCc1nc2nc(C)nn2c(N)c1CCC(C)CC(C)(C)C` (stereo not shown) [Compound I-1, 5-ethyl-2-methyl-6-(3,5,5-trimethylhexyl)-[1,2,4]triazolo[1,5-a]pyrimidin-7-ylamine] came in with a melting point of 180 to 181 °C.

Compound `CCCCCCCCCCc1c(CC)nc2cc(C)nn2c1N` [Compound I-4] returned a melting point of 130 to 131 °C. The compound further yielded an Infection in % in data set [1] of 3%.
